What was measured:
Assay in all cases: relative viability (nuclei count vs DMSO), 5 days (fraction); higher = more cells survive
R406 + OSI-027 = compound: COc1cc(Nc2ncc(F)c(Nc3ccc4c(n3)NC(=O)C(C)(C)O4)n2)cc(OC)c1OC [R406] + COc1cccc2cc(-c3nc([C@H]4CC[C@H](C(=O)O)CC4)n4ncnc(N)c34)[nH]c12 [OSI-027] (partner 0.5 µM)
Procedure, shortened: (§1)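 Dosing by pin tool came one day after lung cancer cell lines were seeded in 1536-well plates, using either one drug or a fixed anchor-drug dose plus five library-drug doses (not always all listed) in √10 steps. After 5 days, nuclei were counted on 4× images. Relative viability is treated-well nuclei count divided by vehicle-well nuclei count, and values are medians of duplicate plates.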

R406 + Linsitinib = compound: COc1cc(Nc2ncc(F)c(Nc3ccc4c(n3)NC(=O)C(C)(C)O4)n2)cc(OC)c1OC [R406] + C[C@]1(O)C[C@@H](c2nc(-c3ccc4ccc(-c5ccccc5)nc4c3)c3c(N)nccn32)C1 [Linsitinib] (partner 1 µM)
Procedure, shortened: as §1

R406 + Phenformin = compound: COc1cc(Nc2ncc(F)c(Nc3ccc4c(n3)NC(=O)C(C)(C)O4)n2)cc(OC)c1OC [R406] + N=C(N)NC(=N)NCCc1ccccc1 [Phenformin] (partner 250 µM)
Procedure, shortened: as §1

Daporinad + Luminespib = compound: O=C(/C=C/c1cccnc1)NCCCCC1CCN(C(=O)c2ccccc2)CC1 [Daporinad] + CCNC(=O)c1noc(-c2cc(C(C)C)c(O)cc2O)c1-c1ccc(CN2CCOCC2)cc1 [Luminespib] (partner 0.01 µM)
Procedure, shortened: as §1

| Cell Line | relative viability (R406 + OSI-027; first compound 0.08 µM) | relative viability (R406 + OSI-027; first compound 0.253 µM) | relative viability (R406 + OSI-027; first compound 0.8 µM) | relative viability (R406 + OSI-027; first compound 2.53 µM) | relative viability (R406 + OSI-027; first compound 8 µM) | relative viability (R406 + Linsitinib; first compound 0.08 µM) | relative viability (R406 + Linsitinib; first compound 0.253 µM) | relative viability (R406 + Linsitinib; first compound 0.8 µM) | relative viability (R406 + Linsitinib; first compound 2.53 µM) | relative viability (R406 + Linsitinib; first compound 8 µM) | relative viability (R406 + Phenformin; first compound 0.08 µM) | relative viability (R406 + Phenformin; first compound 0.253 µM) | relative viability (R406 + Phenformin; first compound 0.8 µM) | relative viability (R406 + Phenformin; first compound 2.53 µM) | relative viability (R406 + Phenformin; first compound 8 µM) | relative viability (Daporinad + Luminespib; first compound 0.0005 µM) | relative viability (Daporinad + Luminespib; first compound 0.001581 µM) | relative viability (Daporinad + Luminespib; first compound 0.005 µM) | relative viability (Daporinad + Luminespib; first compound 0.01581 µM) |
| --- | --- | --- | --- | --- | --- | --- | --- | --- | --- | --- | --- | --- | --- | --- | --- | --- | --- | --- | --- |
| NCI-H2228 | 0.529 | 0.574 | 0.867 | 0.138 | 0.163 | 0.729 | 0.813 | 0.889 | 0.273 | 0.154 | 0.318 | 0.383 | 0.312 | 0.106 | 0.0936 | 0.17 | 0.173 | 0.221 | 0.163 |
| NCI-H650 | 0.453 | 0.553 | 0.465 | 0.45 | 0.344 | 0.909 | 0.876 | 1.15 | 0.473 | 0.528 | 0.416 | 0.498 | 0.463 | 0.295 | 0.337 | 0.82 | 0.825 | 0.734 | 0.953 |
| NCI-H1793 | 0.251 | 0.273 | 0.303 | 0.116 | 0.158 | 0.703 | 1.01 | 1.2 | 0.57 | 0.376 | 0.312 | 0.477 | 0.546 | 0.192 | 0.156 | 0.163 | 0.203 | 0.158 | 0.217 |
| NCI-H2085 | 0.863 | 0.968 | 0.861 | 0.259 | 0.345 | 0.899 | 1.08 | 0.825 | 0.971 | 0.707 | 0.763 | 0.811 | 0.769 | 0.316 | 0.495 | 0.386 | 0.434 | 0.549 | 0.503 |
| NCI-H838 | 0.407 | 0.472 | 0.368 | 0.326 | 0.167 | 1.03 | 1.15 | 1.12 | 0.645 | 0.522 | 0.569 | 0.634 | 0.727 | 0.188 | 0.132 | 0.288 | 0.332 | 0.343 | 0.29 |
| NCI-H460 | 0.621 | 0.587 | 1.13 | 0.288 | 0.111 | 0.824 | 0.8 | 1.17 |  | 0.0646 | 0.552 | 0.682 | 0.609 | 0.105 | 0.102 | 0.0254 | 0.0436 | 0.0289 | 0.0343 |
| LOU-NH91 | 0.728 | 0.714 | 0.651 | 0.448 | 0.429 | 0.992 | 0.882 | 0.982 | 0.602 | 0.521 | 0.711 | 0.72 | 0.713 | 0.416 | 0.391 | 0.331 | 0.364 | 0.291 | 0.382 |
| NCI-H3122 | 0.956 | 1.06 | 1.01 | 0.319 | 0.78 | 0.976 | 0.921 | 0.982 | 1.01 | 0.98 | 0.396 | 0.39 | 0.396 | 0.365 | 0.369 | 0.0688 | 0.0544 | 0.0785 | 0.0818 |
| NCI-H520 | 0.243 | 0.302 | 0.336 | 0.25 | 0.188 | 0.897 | 1.09 | 1.07 | 0.486 | 0.295 | 0.625 | 0.785 | 0.641 | 0.28 | 0.188 | 0.235 | 0.193 | 0.197 | 0.195 |
| NCI-H661 | 0.674 | 0.819 | 0.702 | 0.501 | 0.38 | 0.436 | 0.72 | 0.515 | 0.39 | 0.335 | 0.288 | 0.263 | 0.267 | 0.273 | 0.226 | 0.936 | 0.873 | 0.558 | 0.423 |
| NCI-H727 | 0.712 | 0.829 | 0.641 | 0.304 | 0.537 | 0.252 | 0.28 | 0.319 | 0.35 | 0.237 | 0.529 | 0.644 | 0.622 |  | 0.423 | 0.257 | 0.27 | 0.37 | 0.195 |
| NCI-H1734 | 0.604 | 0.684 | 0.647 | 0.381 | 0.374 | 0.912 | 0.859 | 0.949 | 0.818 | 0.554 | 0.374 | 0.483 | 0.407 | 0.257 | 0.202 | 0.233 | 0.187 | 0.185 | 0.228 |
| LXF-289 | 0.805 | 0.84 | 0.931 | 0.377 | 0.487 | 0.922 | 0.967 | 0.994 | 0.989 | 0.295 | 0.517 | 0.543 | 0.533 | 0.38 | 0.4 | 0.668 | 0.75 | 0.766 | 0.657 |
| H3255 | 0.569 |  | 0.651 | 0.426 | 0.406 | 0.84 | 1.08 | 1.04 | 0.8 | 0.725 | 0.366 |  | 0.352 | 0.369 | 0.311 | 0.832 | 0.995 | 0.929 | 1.1 |
| 201T | 0.974 | 0.762 | 0.705 | 0.683 | 0.517 | 0.995 | 1.06 | 1.07 | 0.915 | 0.824 | 0.416 | 0.483 | 0.431 | 0.367 | 0.351 | 1.04 | 1.02 | 1.12 | 1.11 |
| NCI-H2126 | 0.624 | 0.78 | 0.661 | 0.606 | 0.641 | 0.683 | 0.783 | 0.753 | 0.657 | 0.625 | 0.527 | 0.554 | 0.516 | 0.529 | 0.359 | 0.883 | 0.897 | 0.921 | 0.924 |
| HOP-62 | 0.774 | 0.958 | 0.854 | 0.64 | 0.654 | 0.773 | 0.97 | 0.936 | 0.684 | 0.865 | 0.661 | 0.783 | 0.631 | 0.71 | 0.658 | 0.898 | 0.963 | 1.03 | 0.688 |

— the supplement of paper PMC10307832
